Source: the supplement of paper PMC10883282

Legend:
Test in all cases: relative viability vs DMSO control (72 h) (fraction); higher = more viable cells
[1] = tested on: KHOS-240S
How it was run: (§1)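 Plates held 72 h at 37 °C and 5% CO2 contained sarcoma cell lines seeded in 384-well format to reach 80–90% confluence, plus 2.5 µl of serially diluted compound added after 24 h. Source plate concentrations ran from 10 mM to 0.0002 mM, with 0.1% DMSO as vehicle and a 5 µM positive control. Percent growth from ATPLite readings, averaged over up to triplicate wells, gave relative viability. Values were rescaled with 1 as full and 0 as none.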

[2] = tested on: RD
How it was run: as §1

[3] = tested on: SYO-1
How it was run: as §1

[4] = tested on: MES-SA
How it was run: as §1

[5] = tested on: SW1353
How it was run: as §1

[6] = tested on: SW982
How it was run: as §1

[7] = tested on: VA-ES-BJ
How it was run: as §1

[8] = tested on: HT1080
How it was run: as §1

[9] = tested on: SK-LMS-1
How it was run: as §1

[10] = tested on: RD-ES
How it was run: as §1

[11] = tested on: G401
How it was run: as §1

[12] = tested on: SK-ES-1
How it was run: as §1

CN1CCN(CCOc2cc(OC3CCOCC3)c3c(Nc4c(Cl)ccc5c4OCO5)ncnc3c2)CC1 [Saracatinib]
Settings	relative viability
[1], 0.00017 µM	1.07
[1], 0.00051 µM	1.08
[1], 0.00152 µM	1.07
[1], 0.00457 µM	1.07
[1], 0.01372 µM	1.07
[1], 0.04115 µM	1.08
[1], 0.1235 µM	1.046
[1], 0.3704 µM	0.934
[1], 1.111 µM	0.802
[1], 3.333 µM	0.614
[1], 10 µM	0.451
[2], 0.00017 µM	1.05
[2], 0.00051 µM	1.08
[2], 0.00152 µM	1.096
[2], 0.00457 µM	1.08
[2], 0.01372 µM	1.07
[2], 0.04115 µM	1.01
[2], 0.1235 µM	0.948
[2], 0.3704 µM	0.836
[2], 1.111 µM	0.786
[2], 3.333 µM	0.692
[2], 10 µM	0.642
[3], 0.00017 µM	1.02
[3], 0.00051 µM	1.02
[3], 0.00152 µM	0.971
[3], 0.00457 µM	0.965
[3], 0.01372 µM	0.958
[3], 0.04115 µM	0.917
[3], 0.1235 µM	0.91
[3], 0.3704 µM	0.826
[3], 1.111 µM	0.66
[3], 3.333 µM	0.481
[3], 10 µM	0.389
[4], 0.00017 µM	0.934
[4], 0.00051 µM	0.933
[4], 0.00152 µM	0.936
[4], 0.00457 µM	0.94
[4], 0.01372 µM	0.959
[4], 0.04115 µM	0.923
[4], 0.1235 µM	0.943
[4], 0.3704 µM	0.925
[4], 1.111 µM	0.837
[4], 3.333 µM	0.692
[4], 10 µM	0.622
[5], 0.00017 µM	1.03
[5], 0.00051 µM	0.988
[5], 0.00152 µM	1.02
[5], 0.00457 µM	0.996
[5], 0.01372 µM	0.945
[5], 0.04115 µM	0.929
[5], 0.1235 µM	0.891
[5], 0.3704 µM	0.843
[5], 1.111 µM	0.7072
[5], 3.333 µM	0.6847
[5], 10 µM	0.666
[6], 0.00017 µM	1.02
[6], 0.00051 µM	1.09
[6], 0.00152 µM	1.05
[6], 0.00457 µM	1.06
[6], 0.01372 µM	1.08
[6], 0.04115 µM	1.08
[6], 0.1235 µM	0.919
[6], 0.3704 µM	0.739
[6], 1.111 µM	0.568
[6], 3.333 µM	0.486
[6], 10 µM	0.442
[7], 0.00017 µM	1.05
[7], 0.00051 µM	1.07
[7], 0.00152 µM	1.07
[7], 0.00457 µM	1.11
[7], 0.01372 µM	1.11
[7], 0.04115 µM	1.14
[7], 0.1235 µM	1.14
[7], 0.3704 µM	1.12
[7], 1.111 µM	0.941
[7], 3.333 µM	0.805
[7], 10 µM	0.681
[8], 0.00017 µM	1.05
[8], 0.00051 µM	1.04
[8], 0.00152 µM	1.05
[8], 0.00457 µM	1.01
[8], 0.01372 µM	1.022
[8], 0.04115 µM	1.02
[8], 0.1235 µM	1.053
[8], 0.3704 µM	1.04
[8], 1.111 µM	1.01
[8], 3.333 µM	0.952
[8], 10 µM	0.859
[9], 0.00017 µM	1.03
[9], 0.00051 µM	1.06
[9], 0.00152 µM	1.05
[9], 0.00457 µM	1.04
[9], 0.01372 µM	1.02
[9], 0.04115 µM	1.05
[9], 0.1235 µM	0.973
[9], 0.3704 µM	0.933
[9], 1.111 µM	0.864
[9], 3.333 µM	0.71
[9], 10 µM	0.491
[10], 0.00017 µM	0.975
[10], 0.00051 µM	1
[10], 0.00152 µM	0.99
[10], 0.00457 µM	1.01
[10], 0.01372 µM	0.979
[10], 0.04115 µM	0.982
[10], 0.1235 µM	0.966
[10], 0.3704 µM	0.935
[10], 1.111 µM	0.898
[10], 3.333 µM	0.858
[10], 10 µM	0.735
[11], 0.00017 µM	1.03
[11], 0.00051 µM	1.05
[11], 0.00152 µM	1.008
[11], 0.00457 µM	1.04
[11], 0.01372 µM	1.05
[11], 0.04115 µM	1.01
[11], 0.1235 µM	0.955
[11], 0.3704 µM	0.912
[11], 1.111 µM	0.86
[11], 3.333 µM	0.797
[11], 10 µM	0.668
[12], 0.00017 µM	0.989
[12], 0.00051 µM	1.05
[12], 0.00152 µM	1.04
[12], 0.00457 µM	1.01
[12], 0.01372 µM	1.04
[12], 0.04115 µM	1.01
[12], 0.1235 µM	0.968
[12], 0.3704 µM	0.951
[12], 1.111 µM	0.903
[12], 3.333 µM	0.81
[12], 10 µM	0.604
